Common to all, as to assay: NCI anticancer screen, dose series, 48 h
Test [1] relates to HCT-15 colon.
Test [2] concerns SN12C renal.
Test [3] has as its system NCI-H460 lung.
Test [4] concerns NCI/ADR-RES ovarian.
Test [5] concerns HOP-92 NSCLC.
Test [6] relates to HL-60(TB) leukemia.
In test [7] the test system is KM12 colon.
Test [8] relates to COLO 205 colon.
Test [9] has as its system SK-OV-3 ovarian.
Test [10] relates to SNB-19 CNS.

“And” between values parts separate entries of the source, which are not always exact repeats. Identical values can stand only once.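 A five-concentration, 48-hour dose response in 96-well plates underlies each endpoint, interpolated linearly between surrounding concentrations. The concentration for 50% growth inhibition is given as GI50. At the TGI there is no net growth.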

In the case of `COC(=O)c1c2c(c(C)[n+]([O-])c1C)C(=O)C(NCc1ccc(Br)cc1)=CC2=O`, the GI50 is 1.44 µM in [1]; 1.66 µM in [2]; 1.86 µM in test [3]; 1.97 µM in test [4]; 3.07 µM in test [5]; 2.31 µM in test [6]. In addition, the TGI was 3.91 µM in test [1]; 4.09 µM in test [2]; over 100 µM in test [3]; 7.03 µM in test [4]; 7.15 µM in test [5]; 5.37 µM in [6].

Consider `Cc1cc(C(=O)CSC(=S)SC(C)(C)C)ccc1Cl`, for which the TGI was determined as 57.6 µM in test [1]; 53.3 µM in [7]; 43.6 µM in test [2]; 28.3 µM in test [3]; 33.1 µM in [8]; 42.1 µM in [4]. Besides, the TGI in [9] is 94.5 µM; in test [10], 32 µM; in test [5], 70.3 µM; in [6], 44.1 µM.

Regarding `C=CC12CCN(CC1)C(C(O)c1ccnc3ccc(OC)cc13)C2` (stereo not given), the GI50 is 96.2 µM in [1]; over 100 µM in test [7]; over 100 µM in [2]; over 100 µM in [3]; 94.8 µM in [8]; over 100 µM in test [4]. Besides, the GI50 in [9] is over 100 µM; in test [10], over 100 µM; in [5], 35.2 µM; in test [6], over 100 µM. In addition, the TGI in [1], in test [7], in test [2], in [3], in test [8] and in test [4] was over 100 µM throughout. Further, the TGI in test [9], in test [10], in [5] and in [6] was over 100 µM in each case.

Turning to `NC(=S)N/N=C/c1ncccc1O`, the GI50 is 2.67 µM in [1]; 4.67 µM in test [7]; 2.04 µM in test [2]; 3.17 µM in test [3]; 3.48 µM in test [8]; 2.21 µM in [4]. Also, the GI50 in [9] was 4.76 µM; in test [10] it was 3.61 µM; in [5] it was 6.55 µM; in test [6], 1.27 µM and 0.477 µM. The TGI in test [1] is over 439 µM; in test [7], over 1000 µM; in [2], 24.1 µM and 45.2 µM; in [3], 48.5 µM and 25.2 µM; in test [8] it was over 431 µM; in test [4] it was 38 µM and 6.56 µM. The TGI was 49.1 µM and 130 µM in test [9]; 295 µM in [10]; 31.2 µM and 90.7 µM in test [5]; 3.6 µM and 3.59 µM in [6].

In the case of `C[C@H](CCOc1cccc(CC(=O)O)c1)N(Cc1cccc(C(F)(F)F)c1Cl)CC(c1ccccc1)c1ccccc1`, the GI50 in test [1] is 3.25 µM; in test [7], 4.1 µM; in test [2], 5.33 µM; in test [3], 3.9 µM; in test [4], 6.97 µM; in test [10], 6.25 µM. In addition, the GI50 was 3.21 µM in [5] and 5.58 µM in [6]. Moreover, the TGI in test [1] worked out at 12.3 µM; in [7], 15.1 µM; in [2] it was 18.7 µM; in test [3], 13.6 µM; in [4], 21.3 µM; in test [10], 19.8 µM. Moreover, the results for the TGI in test [5] and in [6] were 16.5 µM and 24.6 µM, respectively.

On to `COC(=O)c1c(C)cc(OC)c(C/C=C(\C)CCCc2coc(C=C(C)C)c2)c1OC`, for which the TGI in test [1], in test [7], in test [2], in [3], in test [8] and in test [4] was over 100 µM in each case. Further, the TGI in [10], in test [5] and in test [6] was over 100 µM each time.

Consider `COc1ccc(Cl)cc1NC(=O)c1ccc(NC2=C(Cl)C(=O)N(Cc3ccccc3)C2=O)cc1`, for which the GI50 in test [1] is 10.7 µM; in test [7] it was 64.4 µM; in test [2], 23 µM; in [3], 9.41 µM; in [8], over 100 µM; in test [4], 55.1 µM. For the same compound, the GI50 in test [10] was over 100 µM; in test [6], 9.51 µM. In addition, the TGI in test [1], in test [7], in test [2], in test [3], in test [8] and in test [4] was over 100 µM in each case. Besides, the TGI in test [10] was over 100 µM; in test [6] it was 55.3 µM.

Turning to `CN(Cc1cnc2nc(N)nc(N)c2n1)c1ccc(C(=O)N[C@@H](CCS(=O)(=O)O)C(=O)O)cc1`, the TGI in test [1], in test [7], in test [2], in [3], in test [8] and in test [4] was over 100 µM throughout. Besides, the TGI in [9], in test [10] and in test [5] was over 100 µM each time.

For `COc1c2occc2c(N)c2ccc(=O)oc12`, the TGI in [1], in test [7], in test [2], in [3], in [8] and in test [4] was over 100 µM each time. The TGI in [10], in test [5] and in test [6] was over 100 µM each time.

For the compound `CSC[C@H](NC(=O)COc1cccc2cnccc12)C(=O)NC(Cc1ccccc1)C(O)C(=O)N1CSC[C@H]1C(=O)NC(C)(C)C` (stereo not given in full), the TGI in test [1], in test [7], in [2], in test [3], in test [8] and in [4] was over 100 µM in each case. The values for the TGI in test [9], in [10] and in [6] were over 100 µM, over 100 µM and 91.4 µM, respectively.

These data come from PubChem BioAssay (NCI).
